Test results from patent EP3744328B1, “USES OF OXADIAZINE COMPOUNDS” (Valoralia I Más D, S.L.U., priority 2019, dated 2020).

Key:
THP-1 cell [1] = assay: Cytotoxic activity assay; assay type: cell-based; conditions: 48 h, at the tested concentrations
Method: Cytotoxic activity assays. THP-1 cell was seeded in 96-well plates at a density of 5x10^4 cells/well and NIH/3T3 cells were seeded in 96-well plates at a density of 5x10^3 cells/well both incubated overnight at 37°C in a humidified atmosphere of 5% CO2. Subsequently, cells were treated with test compounds at the indicated concentrations and DMSO as control for 24 h. The test compounds were dissolved in DMSO (stock solution) and diluted with medium to a final DMSO concentration of 0.2%. MTT solution (50 µL, 7 mg/mL in PBS) was added to each well and plates were incubated for an additional 2 h. Next, the medium was removed and 100 µL of DMSO was added to each well to dissolve the formazan crystals that formed. The absorbance was measured at 590 nm using a spectrophotometric ELISA plate reader (SpectraMax® i3, Molecular Devices, CA, USA). Samples were considered nontoxic for the THP-1 and NIH/3T3 cell line when cell viability was ≥90%.
To analyse the cytotoxic activities of the test compound, THP-1 and NIH/3T3 cells were incubated with ODZN for 48 h and cytotoxicity was measured by fluorescence microscopy using an Incuyte microscope. […] (Figure 1).

[2] = Total antioxidant activity assay (DPPH free radical assay, cell-free)
Method: Total antioxidant activity assay. […] DPPH (1,1-Diphenyl-2-[…]) is a purple coloured stable free radical that is reduced to the yellow-coloured diphenylpicrylhydrazine. In a volume of 1 mL of methanol the test samples are mixed with DPPH 0.125 mM. Trolox (200 µM) is included as a positive control. After 30 min of incubation at room temperature in the dark the absorbance measurements are read at 517 nm using Thermo Scientific Genesys 10 uv scanning spectrophotometer. Lower absorbance of the reaction mixtures indicated higher free radical-scavenging activity. DPPH radical-scavenging activity is calculated according to the following formula: %Antioxidant activity = [(Ac−As)/Ac] × 100 [formula]
Where Ac (control) is the absorbance of the control reaction (DPPH) and As (sample) is the absorbance of DPPH and sample.

THP-1 cell [3] = assay: Cellular antioxidant activity assay (TBHP-induced ROS production, DCFH-DA probe) in THP-1; assay type: cell-based; conditions: Homo sapiens, intracellular ROS induced by TBHP
Method: Cellular antioxidant activity assays. The intracellular accumulation of ROS is detected by fluorimetry using 2',7'-[…] (DCFH-DA). The THP-1 cell (1x10^5 cells/well) are cultured in a 96-well black plate in DMEM supplemented with 10% FBS; culture medium is renewed when the cells reached 80% confluence. For inhibition, the cells are pre-incubated with the test substances for 30 min and treated with 0,4 mM Tert-butylhydroperoxide (TBHP). After 3 h the cells are incubated with 10 µM DCFH-DA in the culture medium at 37°C for 30 min.
The acetate groups on DCFH-DA are removed by an intracellular esterase, trapping the probe inside the THP-1 cell. Then, the cells are washed with PBS at 37°C and the production of ROS measured by changes in fluorescence due to the intracellular accumulation of DCF caused by the oxidation of DCFH. Intracellular ROS, as indicated by DCF fluorescence is detected using the Incucyte FLR software; the data are analyzed by the total green object integrated intensity (GCU x µm^2 x well) of the imaging system IncuCyte HD (Essen BioScience).

NIH/3T3 cell = assay: Cellular antioxidant activity assay (TBHP-induced ROS production, DCFH-DA probe) in NIH/3T3; assay type: cell-based; conditions: Mus musculus, NIH3T3, intracellular ROS induced by TBHP
TNF-α [4] = assay: TNF-α activity assay (ELISA) in THP-1; assay type: cell-based; conditions: Homo sapiens; THP-1 cell; read-out: inhibition of TNF-α production IC50
Method: (§1) TNF-α activity assays. The protein expression levels of TNF-α were measured by using an enzyme-linked immunosorbent assay (ELISA) kit according to the manufacturer's instructions (Diaclone). Absorbance was read at 450 nm on a spectrophotometric ELISA plate reader (Anthos 2020, Version 2.0.5, Biochrom Ltd.,UK). The percentage of TNF-α inhibition was calculated from the ratio between the observed TNF-α amount secreted by treated cells (nM) and the baseline secretion of TNF-α (nM). Dexamethasone (Sigma-Aldrich; 50-02-2), was used as positive control (0.01 µM). Results were normalized to the solvent control DMSO (0.1%).

TNF-α [5] = assay: TNF-α activity assay (ELISA) in NIH/3T3; assay type: cell-based; conditions: Mus musculus, NIH3T3; NIH/3T3 cell; read-out: inhibition of TNF-α production IC50
Method: as §1

NF-κB [6] = assay: NF-κB activity assay in THP-1; assay type: cell-based; conditions: Homo sapiens; THP-1 cell; read-out: inhibition of NF-κB production IC50
NF-κB [7] = assay: NF-κB activity assay (KBF-Luc luciferase reporter) in NIH/3T3; assay type: cell-based; conditions: Mus musculus, NIH3T3; NIH/3T3 cell; read-out: inhibition of NF-κB production IC50
Method: NF-κB activity assays. The NIH/3T3-KBF-Luc cells has been stably transfected with the plasmid KBF-Luc plasmid, which contains three copies of NF-κB binding site (from major histocompatibility complex promoter), fused to a minimal simian virus 40 promoter driving the luciferase gene. Cells (1x10^4 for NIH/3T3-KBF-Luc) are seeded the day before the assay on 96-well plate. Then the cells are treated with the test substances for 15 min and then stimulated with 30 ng/mL TNF-α. After 6 h, the cells are washed twice with PBS and lysed in 50µl lysis buffer containing 25 mM Tris-phosphate (pH 7.8), 8 mM MgCl2, 1 mM DTT, 1% Triton X-100, and 7% glycerol during 15 min at RT in a horizontal shaker. Luciferase activity is measured using a GloMax 96 microplate luminometer (Promega) following the instructions of the luciferase assay kit (Promega, Madison, WI, USA). The RLU is calculated and the results are expressed as percentage of inhibition of NF-κB activity induced by TNF-α (100% activation). The experiments for each concentration of the test items will be done in triplicate wells.

STAT3 = STAT3 activity assay (HeLa-STAT3-luc luciferase reporter); assay type: cell-based; conditions: HeLa-STAT3-Luc cells, IFNγ 25 U/mL, 6 h; read-out: inhibition of IFNγ-induced STAT3 activation IC50
Method: STAT3 activity assay. The HeLa-STAT3-luc cells have been stably transfected with the plasmid 4xM67 pTATA TK-Luc. Cells (15 x10^3 cells/mL) are seeded 96-well plate the day before the assay. Then the cells are treated with the compound for 15 min and then stimulated with IFN-γ 25 IU/mL. After 6 h, the cells are washed twice with PBS and lysed in 50 µL lysis buffer containing 25 mM Tris-phosphate (pH 7.8), 8 mM MgCl2, 1 mM DTT, 1% Triton X-100, and 7% glycerol during 15 min at RT in a horizontal shaker. Luciferase activity was measured using GloMax 96 microplate luminometer (Promega) following the instructions of the luciferase assay kit (Promega, Madison, WI, USA). The RLU is calculated and the results are expressed as percentage of inhibition of STAT3 activity induced by IFN-γ (100% activation). The experiments for each concentration of the test items will be done in triplicate wells.

HIF-1α = HIF-1α activity assay (NIH/3T3-EPO-luc luciferase reporter); assay type: cell-based; conditions: 6 h, read-out: inhibition of DFX-induced activation of EPO-Luc (surrogated marker of HIF-1α stabilization) IC50
Method: HIF-1α activity assay. The NIH/3T3-EPO-luc cells have been stably transfected with the plasmid Epo-Luc plasmid. The EPO-Hypoxia Response Element (HRE)-luciferase reporter plasmid contains three copies of the HRE consensus sequence from the promoter of the erythropoietin gene in the pGL3 vector. Cells (1x10^4 for NIH/3T3-EPO-luc) are seeded the day before the assay. The next day, the cells are stimulated either with the compound or Desferrioxamine (DFX) 150 µM as a positive control. After 6 hours of stimulation the cells are lysed in 25 mM Tris-phosphate pH 7.8, 8 mM MgCl2, 1 mM DTT, 1% Triton X-100, and 7% glycerol during 15 min at RT in a horizontal shaker. Luciferase activity is measured using a GloMax 96 microplate luminometer (Promega) following the instructions of the luciferase assay kit (Promega, Madison, WI, USA). The RLU is calculated and the results are expressed as percentage of inhibition induction/inhibition of EPO-luc activity. The experimentsfor each concentration of the test items will be done in triplicate wells.

tyrosinase = molecular target: T1, tyrosinase (Mus musculus, UniProt P11344); assay: Tyrosinase activity assay in B16-F10 melanoma cells; assay type: cell-based; conditions: 72 h treatment, read-out: inhibits melanin synthesis IC50
T1 construct: To measure the tyrosinase activity of the cells, the B16-F10 cells treated for 3 days; endogenous in cells; host or cells: B16-F10 melanoma cells
T1 sequence (P11344 19-533): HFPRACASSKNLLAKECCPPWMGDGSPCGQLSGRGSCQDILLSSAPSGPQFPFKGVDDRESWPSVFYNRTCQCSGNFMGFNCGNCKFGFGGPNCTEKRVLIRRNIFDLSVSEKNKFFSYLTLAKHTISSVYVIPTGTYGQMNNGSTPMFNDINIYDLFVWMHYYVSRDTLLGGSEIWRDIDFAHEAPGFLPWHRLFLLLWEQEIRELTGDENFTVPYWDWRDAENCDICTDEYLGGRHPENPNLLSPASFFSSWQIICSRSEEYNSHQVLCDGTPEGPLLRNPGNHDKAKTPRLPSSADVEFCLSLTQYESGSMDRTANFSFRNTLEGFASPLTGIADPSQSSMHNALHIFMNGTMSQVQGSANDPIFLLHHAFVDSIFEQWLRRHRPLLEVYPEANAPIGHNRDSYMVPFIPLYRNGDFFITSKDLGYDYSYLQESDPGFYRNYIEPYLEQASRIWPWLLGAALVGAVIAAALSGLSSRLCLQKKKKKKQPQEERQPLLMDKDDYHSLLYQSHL
Method: Tyrosinase activity assay. To measure the tyrosinase activity of the cells, the B16-F10 cells treated for 3 days with several doses of the compound is lysed by incubation at 4°C for 30 min in lysis buffer (20 mM sodium phosphate, pH 6.8, 1% Triton X-100, 1 mM PMSF, 1 mM EDTA) containing protease inhibitors cocktail. The lysates are centrifuged at 15,000 × g for 10 min to obtain the supernatant as the source of tyrosinase. The reaction mixture contained 20 mM phosphate buffer, pH 6.8, 1.25 mM L-DOPA (Sigma-Aldrich). After incubation at 37°C for 2 h, dopachrome formation is monitored by measuring absorbance at a wavelength of 475 nm in a microplatereader (TECAN). Kojic acid 2 mM is used as a positive control.

Row | IC50 ([2]; cell-free assay (DPPH)) | IC50 (THP-1 cell [3]) | IC50 (TNF-α [4]) | IC50 (TNF-α [5]) | IC50 (NF-κB [6]) | IC50 (NF-κB [7]) | IC50 (STAT3) | IC50 (HIF-1α) | IC50 (tyrosinase) | SMILES | cytotoxicity (THP-1 cell [1]) | IC50 (NIH/3T3 cell) | antioxidant activity ([2]; DPPH free radical assay, standard, 200 µM positive control)
1 | 9.77 nM | 10.6 nM | 14.8 nM | 8.21 nM | 56.3 nM | 31.8 nM | 1.57 nM | 9.59 nM | 16.9 nM | CCCCCC1=NN(C(=O)CCO)OC(CCCCC)C1 (stereo not drawn) [ODZN, 1-(4,6-dipentyl-5,6-dihydro-2H-1,2,3-oxadiazin-2-yl)-3-hydroxypropan-1-one] | no cytotoxicity | 3.33 nM | 
2 |  |  |  |  |  |  |  |  |  | Cc1c(C)c2c(c(C)c1O)CCC(C)(C(=O)O)O2 (stereo not drawn) [Trolox, reference compound] |  |  | 92.08%
